Our source for the IC50 values is patent publication US20170001990A1 (Genentech, Inc., priority 2014, published 2017).

The term IC50 denotes the concentration at which inhibition is half-maximal.

Each structure is given as a SMILES string.

The experiment deals with Human recombinant carboxy-terminal his-tagged LDHA (amino acids 2-332) (Homo sapiens, UniProt P00338). The experiment is described as follows: LDHA enzyme inhibition assay (NADH fluorescence). Particulars: LDHA IC50 (μM), 1 nM LDHA, NADH and pyruvate, stereochemistry of tested sample given.
For the compound `O=C1CC(c2ccc(N3CCC(F)CC3)cc2)(c2ccsc2)NC(=O)C1Sc1ccccc1Cl` (centres unmarked) [Example 107, 3-(2-chlorophenyl)sulfanyl-6-[4-(4-fluoro-1-piperidyl)phenyl]-6-(3-thienyl)piperidine-2,4-dione], the IC50 came to 0.131 µM.
For the compound `CC1(C)OCC(CCOc2cccc(C3(c4ccsc4)CC(=O)C(Sc4ccccc4Cl)C(=O)N3)n2)O1` (centres unmarked) [Example 211, 3-(2-chlorophenyl)sulfanyl-6-[6-[2-(2,2-dimethyl-1,3-dioxolan-4-yl)ethoxy]-2-pyridyl]-6-(3-thienyl) piperidine-2,4-dione], the IC50 is 0.183 µM.
As for `O=C1CC(c2ccsc2)(c2cccc(Oc3ccccc3Br)n2)NC(=O)C1Sc1ccccc1Cl` (single isomer, unassigned) [Example 172, 6-[6-(2-bromophenoxy)-2-pyridyl]-3-(2-chloro-phenyl)sulfanyl-6-(3-thienyl)piperidine-2,4-dione], the figure is 0.056 µM.
With `CN(c1cccc(CO)c1)c1cccc(C2(c3ccsc3)CC(=O)C(Sc3ccccc3Cl)C(=O)N2)n1` (centres unmarked) [Example 309, 3-((2-chlorophenyl)thio)-6-(6-((3-(hydroxymethyl)phenyl)(methyl)amino)pyridin-2-yl)-6-(thiophen-3-yl)piperidine-2,4-dione], the IC50 amounted to 0.408 µM.
In the case of `O=C1CC(c2ccsc2)(c2cccc(OCC3CC3)n2)NC(=O)C1Sc1ccccc1Cl` (single isomer, unassigned) [Example 84, 3-(2-chlorophenyl)sulfanyl-6-[6-(cyclopropyl-methoxy)-2-pyridyl]-6-(3-thienyl)piperidine-2,4-dione] it was 0.008 µM.
In the case of `Cc1cnc(Nc2cccc(C3(c4ccsc4)CC(=O)C(Sc4ccccc4Cl)C(=O)N3)n2)[nH]1` (centres unmarked) [Example 276, 3-((2-chlorophenyl)thio)-6-(6-((5-methyl-1H-imidazol-2-yl)amino)pyridin-2-yl)-6-(thiophen-3-yl)piperidine-2,4-dione] it was 0.175 µM.
In the case of `O=C1CC(c2ccsc2)(c2cccc(OCC(F)(F)F)n2)NC(=O)C1Sc1ccccc1Cl` (single isomer, unassigned) [Example 86, 3-(2-chlorophenyl)sulfanyl-6-(3-thienyl)-6-[6-(2,2,2-trifluoroethoxy)-2-pyridyl]piperidine-2,4-dione] it was 0.022 µM.
Turning to `O=C1CC(c2ccsc2)(c2cccc(OCC(F)(F)F)n2)NC(=O)C1Sc1ccccc1Cl` (single isomer, unassigned) [Example 87, 3-(2-chlorophenyl)sulfanyl-6-(3-thienyl)-6-[6-(2,2,2-trifluoroethoxy)-2-pyridyl]piperidine-2,4-dione], the IC50 worked out at 0.01 µM.
On to `O=C1CC(c2ccsc2)(c2cccc(OCC3CCCC3)n2)NC(=O)C1Sc1ccccc1Cl` (single isomer, unassigned) [Example 243, 3-(2-chlorophenyl)sulfanyl-6-[6-(cyclopentylmethoxy)-2-pyridyl]-6-(3-thienyl) piperidine-2,4-dione], for which the IC50 was 0.001 µM.
In the case of `CC(C)(C)COc1cccc(C2(c3ccsc3)CC(=O)C(Sc3ccccc3Cl)C(=O)N2)n1` (centres unmarked) [Example 226, 3-(2-chlorophenyl)sulfanyl-6-[6-(2,2-dimethylpropoxy)-2-pyridyl]-6-(3-thienyl) piperidine-2,4-dione] it was 0.02 µM; in that of `Cc1cc(Nc2cccc([C@@]3(c4ccsc4)CC(=O)C(Sc4ccccc4Cl)C(=O)N3)n2)cnc1F` (stereo partly drawn) [Example 335, (6S)-3-(2-chlorophenyl) sulfanyl-6-[6-[(6-fluoro-5-methyl-3-pyridyl)amino]-2-pyridyl]-6-(3-thienyl) piperidine-2,4-dione], 0.002 µM.
Turning to `O=C1CC(c2ccsc2)(c2cccc(OCC(F)F)n2)NC(=O)C1Sc1ccccc1Cl` (single isomer, unassigned) [Example 223, 3-(2-chlorophenyl)sulfanyl-6-[6-(2,2-difluoroethoxy)-2-pyridyl]-6-(3-thienyl) piperidine-2,4-dione], the IC50 was determined as 0.057 µM.
In the case of `COc1cc(-c2cccc(C3(c4ccsc4)CC(=O)C(Sc4ccccc4Cl)C(=O)N3)n2)ccc1F` (centres unmarked) [Example 255, 3-((2-chlorophenyl)thio)-6-(6-(4-fluoro-3-methoxy-phenyl)pyridin-2-yl)-6-(thiophen-3-yl)piperidine-2,4-dione] it was 0.102 µM; in that of `CCC(C)COc1cccc(C2(c3ccsc3)CC(=O)C(Sc3ccccc3Cl)C(=O)N2)n1` (centres unmarked) [Example 164, 3-(2-chlorophenyl)sulfanyl-6-[6-(2-methylbutoxy)-2-pyridyl]-6-(3-thienyl) piperidine-2,4-dione], 0.009 µM.
In the case of `O=C1CC(c2ccsc2)(c2cccc(Oc3cncnc3)n2)NC(=O)C1Sc1ccccc1Cl` (centres unmarked) [Example 54, 3-(2-chlorophenyl)sulfanyl-6-(6-pyrimidin-5-yloxy-2-pyridyl)-6-(3-thienyl)piperidine-2,4-dione] it was 0.201 µM; in that of `CC(Oc1cccc(C2(c3ccsc3)CC(=O)C(Sc3ccccc3Cl)C(=O)N2)n1)c1ccc(F)cc1` (centres unmarked) [Example 301], 0.092 µM; in that of `O=C1CC(c2ccsc2)(c2cccc(-c3ccnc(N4CCOCC4)c3)n2)NC(=O)C1Sc1ccccc1Cl` (centres unmarked) [Example 261, 3-((2-chlorophenyl)thio)-6-(2′-morpholino-[2,4′-bipyridin]-6-yl)-6-(thiophen-3-yl)piperidine-2,4-dione], 0.039 µM.
With `O=C1CC(c2ccsc2)(c2cccc(Cc3ccccc3)n2)NC(=O)C1Sc1ccccc1Cl` (single isomer, unassigned) [Example 180, 6-(6-benzyl-2-pyridyl)-3-(2-chlorophenyl)sulfanyl-6-(3-thienyl)piperidine-2,4-dione], the IC50 turned out to be 0.002 µM.
In the case of `CN1C(=O)C(Sc2ccccc2Cl)C(=O)CC1(c1ccsc1)c1cccc(NC2CCOCC2)c1` (centres unmarked) [Example 34, 3-(2-chlorophenyl)sulfanyl-1-methyl-6-[3-(tetrahydropyran-4-ylamino)phenyl]-6-(3-thienyl)piperidine-2,4-dione] it was 0.033 µM; in that of `CC(C)(O)CCCOc1cccc(C2(c3ccsc3)CC(=O)C(Sc3ccccc3Cl)C(=O)N2)n1` (single isomer, unassigned) [Example 126, 3-(2-chlorophenyl)sulfanyl-6-[6-(4-hydroxy-4-methyl-pentoxy)-2-pyridyl]-6-(3-thienyl) piperidine-2,4-dione], 0.238 µM; in that of `CC/C=C/COc1cccc(C2(c3ccsc3)CC(=O)C(Sc3ccccc3Cl)C(=O)N2)n1` (centres unmarked) [Example 250, 3-(2-chlorophenyl)sulfanyl-6-(6-pent-2-enoxy-2-pyridyl)-6-(3-thienyl) piperidine-2,4-dione], 0.036 µM.
With `CC(O)c1cccc(Nc2cccc(C3(c4ccsc4)CC(=O)C(Sc4ccccc4Cl)C(=O)N3)n2)c1` (centres unmarked) [Example 307, 3-((2-chlorophenyl)thio)-6-(6-((3-(1-hydroxy-ethyl)phenyl)amino)pyridin-2-yl)-6-(thiophen-3-yl)piperidine-2,4-dione], the IC50 worked out at 0.095 µM.
On to `CCOCC(C)Oc1cccc(C2(c3ccsc3)CC(=O)C(Sc3ccccc3Cl)C(=O)N2)n1` (centres unmarked) [Example 247, 3-((2-chlorophenyl)thio)-6-(6-((1-ethoxypropan-2-yl)oxy)pyridin-2-yl)-6-(thiophen-3-yl)piperidine-2,4-dione], for which the IC50 was found to be 0.01 µM.
As for `CN(c1cccc(C(F)(F)F)c1)c1cccc(C2(c3ccsc3)CC(=O)C(Sc3ccccc3Cl)C(=O)N2)n1` (centres unmarked) [Example 275, 3-((2-chlorophenyl)thio)-6-(6-(methyl(3-(trifluoromethyl)phenyl)amino)pyridin-2-yl)-6-(thiophen-3-yl)piperidine-2,4-dione], the figure is 0.233 µM; as for `COCCCOc1ccc(C2(c3ccsc3)CC(=O)C(Sc3ccccc3Cl)C(=O)N2)cc1` (centres unmarked) [Example 31, 3-(2-chlorophenyl)sulfanyl-6-[4-(3-methoxypropoxy)phenyl]-6-(3-thienyl)piperidine-2,4-dione], 0.008 µM.
In the case of `O=C1CC(c2ccsc2)(c2cccc(OCCC3CCC3)n2)NC(=O)C1Sc1ccccc1Cl` (single isomer, unassigned) [Example 141, 3-(2-chlorophenyl)sulfanyl-6-[6-(2-cyclobutyl-ethoxy)-2-pyridyl]-6-(3-thienyl)piperidine-2,4-dione] it was 0.003 µM.
As to `O=C1CC(c2ccsc2)(c2cccc(Oc3ccccc3Br)n2)NC(=O)C1Sc1ccccc1Cl` (single isomer, unassigned) [Example 197, 6-[6-(2-bromophenoxy)-2-pyridyl]-3-(2-chlorophenyl) sulfanyl-6-(3-thienyl) piperidine-2,4-dione], the IC50 turned out to be 0.01 µM.
`O=C1CC(c2ccsc2)(c2cccc(OCc3ccc(F)cc3)n2)NC(=O)C1Sc1ccccc1Cl` (single isomer, unassigned) [Example 298, 3-((2-chlorophenyl)thio)-6-(6-((4-fluorobenzyl)oxy)pyridin-2-yl)-6-(thiophen-3-yl)piperidine-2,4-dione]: the IC50 was 0.063 µM.
Take `O=C1CC(c2ccsc2)(c2cccc(Oc3ccccc3)n2)NC(=O)C1Sc1ccccc1Cl` [Example 336, (6R)-3-(2-chlorophenyl) sulfanyl-6-(6-phenoxy-2-pyridyl)-6-(3-thienyl) piperidine-2,4-dione]: the IC50 turned out to be 0.368 µM.
In the case of `CCOCCOc1cccc(C2(c3ccsc3)CC(=O)C(Sc3ccccc3Cl)C(=O)N2)n1` (single isomer, unassigned) [Example 227, 3-(2-chlorophenyl)sulfanyl-6-[6-(2-ethoxyethoxy)-2-pyridyl]-6-(3-thienyl) piperidine-2,4-dione] it was 0.015 µM.
As for `O=C1CC(c2ccsc2)(c2cccc(OC3CCOC3)n2)NC(=O)C1Sc1ccccc1Cl` (centres unmarked) [Example 49, 3-((2-chlorophenyl)thio)-6-(6-((tetrahydrofuran-3-yl)oxy)pyridin-2-yl)-6-(thiophen-3-yl) piperidine-2,4-dione], the figure is 0.025 µM; as for `O=C1CC(c2ccsc2)(c2cccc(NCCC3CC3)n2)NC(=O)C1Sc1ccccc1Cl` (centres unmarked) [Example 138, 3-(2-chlorophenyl)sulfanyl-6-[6-(2-cyclopropyl-ethylamino)-2-pyridyl]-6-(3-thienyl)piperidine-2,4-dione], 0.025 µM.
